Experimental data reported in patent EP0293532A1, “6- or 7-beta-[2-[4-(substituted)-2,3-dioxopiperazin-1-yl) carbonylamino]-(substituted)acetamido]-penicillin and cephalosporin derivatives” (BEECHAM GROUP PLC, priority 1987, dated 1988).
Structures can show the parent of a compound that is named as a salt.

Assays:
Test in all cases: MIC by serial dilution in Iso-sensitest agar
Format in all cases: cell-based
[1] = tested on: K.pneumoniae T767; conditions: Klebsiella pneumoniae, 10⁴ colony-forming units, overnight at 37°C, lowest concentration to inhibit growth
Procedure: (§1) Minimum Inhibitory Concentration (MIC) values of compounds of the invention against a variety of organisms were determined by serial dilution in Iso-sensitest agar (from Oxoid Ltd. Basingstoke, England). The plates were inoculated with 10⁴ colony-forming units and incubated overnight at 37°C. The MIC values recorded in Table I were the lowest concentration of antibiotic to inhibit growth. Comparative data for Piperacillin (6β-[D-2-[(4-ethyl-2, 3-dioxopiperazin-1-yl)carbonylamino]-2-phenylacetamido] -penicillanic acid, sodium salt) and for the compound 6α-formamido-6β-[D-2-[(4-ethyl-2, 3-dioxopiperazin-1-yl)carbonylamino]-2- phenyl acetamido]-penicillanic acid, sodium salt (Compound A) disclosed in U.K. Patent GB-2107307B, are also given.

[2] = tested on: P.aeruginosa K79961; conditions: Pseudomonas aeruginosa, 10⁴ colony-forming units, overnight at 37°C, lowest concentration to inhibit growth
Procedure: as §1

[3] = tested on: S agalactiae 2798; conditions: 10⁴ colony-forming units, overnight at 37°C, lowest concentration to inhibit growth
Procedure: as §1

[4] = tested on: P.aerginosa 10662; conditions: 10⁴ colony-forming units, overnight at 37°C, lowest concentration to inhibit growth
Procedure: as §1

[5] = tested on: E.Coli DC RTEM; conditions: Escherichia coli
Procedure: as §1

[6] = tested on: E.Coli JT 425; conditions: Escherichia coli, JT425, 10⁴ colony-forming units, overnight at 37°C, lowest concentration to inhibit growth
Procedure: as §1

| SMILES | MIC [1] [µg/mL] | MIC [2] [µg/mL] | MIC [3] [µg/mL] | MIC [4] [µg/mL] | MIC [5] [µg/mL] | MIC [6] [µg/mL] |
| --- | --- | --- | --- | --- | --- | --- |
| CCN1CCN(C(=O)N[C@@H](C(=O)N[C@]2(NC=O)C(=O)N3[C@@H](C(=O)O)C(C)(C)S[C@@H]32)c2ccccc2)C(=O)C1=O [Compound A, 6α-formamido-6β-[D-2-[(4-ethyl-2,3-dioxopiperazin-1-yl)carbonylamino]-2-phenylacetamido]-penicillanic acid, sodium salt, reference compound] | 0.12 | 0.12 | 64 | 1 | 0.12 | 0.25 |
| CC1(C)S[C@@H]2[C@H](NC(=O)[C@H](NC(=O)N3CCN(Cc4ccc(O)c(O)c4)C(=O)C3=O)c3ccccc3)C(=O)N2[C@H]1C(=O)O [Example 1, Sodium 6β-[D-2[[4-(3,4-Dihydroxybenzyl)-2,3-dioxopiperazin-1-yl]carbonylamino]-2-phenylacetamido]penicillanate] | 0.5 | < 0.06 | 0.25 | 0.12 | 4 | 1 |
| CC1(C)S[C@H]2N(C(=O)[C@@]2(NC=O)NC(=O)[C@H](NC(=O)N2CCN(Cc3ccc(O)c(O)c3)C(=O)C2=O)c2ccccc2)[C@H]1C(=O)O [Example 2, Sodium 6β-[D-2[[4-(3,4-Dihydroxybenzyl)-2,3-dioxopiperazin-1-yl]carbonylamino]-2-phenylacetamido]-6α-formamidopenicillanate] | < 0.03 | 0.12 | 16 | 0.12 | < 0.03 | < 0.03 |
| CO[C@@]1(NC(=O)[C@H](NC(=O)N2CCN(Cc3ccc(O)c(O)c3)C(=O)C2=O)c2ccccc2)C(=O)N2[C@@H](C(=O)O)C(C)(C)S[C@@H]21 [Example 3, Sodium 6β-[D-2-[[4-(3,4-Dihydroxybenzyl)-2,3-dioxopiperazin-1-yl]carbonylamino]-2-phenylacetamido]-6α-methoxypenicillanate] | 0.25 | 1 | > 128 | 4 | 2 | 16 |
| CC1(C)S[C@H]2N(C(=O)[C@@]2(NC=O)NC(=O)[C@H](NC(=O)N2CCN(Cc3cc(O)c(O)cn3)C(=O)C2=O)c2ccccc2)[C@H]1C(=O)O [Example 6, Sodium 6β-[D-2-[[4-(4,5-Dihydroxypyridin-2-ylmethyl)-2,3-dioxopiperazin-1-yl]carbonylamino]-2-phenylacetamido]-6α-formamidopenicillanate] | 0.06 | 0.3 | > 32 | 1 | 0.06 | 0.25 |
| CCN1CCN(C(=O)N[C@@H](C(=O)N[C@@H]2C(=O)N3[C@@H]2SC(C)(C)[C@@H]3C(=O)O)c2ccccc2)C(=O)C1=O [Piperacillin, 6β-[D-2-[(4-ethyl-2,3-dioxopiperazin-1-yl)carbonylamino]-2-phenylacetamido] -penicillanic acid, sodium salt, reference compound] | 8 | 0.25 | 0.5 | 8 | > 128 | 32 |
